Test results taken from PubChem BioAssay (NCI).
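Cultured in 96-well plates, cells were exposed to test compound for 48 hours across five concentrations. Definition used: TGI = concentration required for complete inhibition of growth.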

Tests used:
Test in all cases: growth of human tumour cells (NCI), 48 h
[1] = test system: COLO 205 colon
[2] = test system: SR leukemia
[3] = test system: NCI-H522 lung
[4] = test system: OVCAR-4 ovarian
[5] = test system: M19-MEL melanoma
[6] = test system: A549 NSCLC
[7] = test system: SNB-78 CNS
[8] = test system: SK-OV-3 ovarian
[9] = test system: DMS 114 small cell lung
[10] = test system: DMS 273 small cell lung
[11] = test system: MALME-3M melanoma
[12] = test system: 786-0 renal
[13] = test system: KM20L2 colon
[14] = test system: DLD-1 colon
[15] = test system: HCT-116 colon
[16] = test system: EKVX NSCLC
[17] = test system: SF-295 CNS
[18] = test system: LXFL 529 NSCLC

Work on `COC(=O)C(C(=O)C(=O)Nc1ccc(C)cc1)c1nc2ccc([N+](=O)[O-])cc2[nH]c1=O` (stereo unspecified) yielded a TGI [1] of over 100 µM, a TGI [2] of over 100 µM and a TGI [3] of over 100 µM. For the same compound, the TGI [4] was over 100 µM, the TGI [5] was over 100 µM and the TGI [6] was over 100 µM. For the same compound, the TGI [7] was over 100 µM, the TGI [8] was over 100 µM and the TGI [9] was over 100 µM. The TGI [10] was over 100 µM, the TGI [11] was over 100 µM and the TGI [12] was over 100 µM. It also gave a TGI [13] of over 100 µM, a TGI [14] of over 100 µM and a TGI [15] of over 100 µM. It also gave a TGI [16] of over 100 µM, a TGI [17] of over 100 µM and a TGI [18] of over 100 µM.

`NC(CCSCC(F)(F)F)C(=O)O` (stereo unspecified) gave a TGI [1] of over 100 µM, a TGI [2] of over 100 µM and a TGI [3] of over 100 µM. For the same compound, the TGI [4] was over 100 µM, the TGI [5] was over 100 µM and the TGI [6] was over 100 µM. For the same compound, the TGI [7] was over 100 µM, the TGI [9] was over 100 µM and the TGI [10] was over 100 µM. It also gave a TGI [11] of over 100 µM, a TGI [12] of over 100 µM and a TGI [13] of over 100 µM. It also gave a TGI [14] of over 100 µM, a TGI [15] of over 100 µM and a TGI [16] of over 100 µM. It also gave a TGI [17] of over 100 µM and a TGI [18] of over 100 µM.

`O=C(Nc1cccc(C(F)(F)F)c1)C(=O)C(C(=O)c1ccc(Cl)c(Cl)c1)C1OC(=O)c2ccccc21` (stereo unspecified) showed a TGI [1] of over 100 µM, a TGI [2] of over 100 µM and a TGI [3] of over 100 µM. The TGI [4] was over 100 µM, the TGI [5] was 54 µM and the TGI [6] was over 100 µM. For the same compound, the TGI [7] was over 100 µM, the TGI [8] was over 100 µM and the TGI [9] was 78.6 µM. It also gave a TGI [10] of over 100 µM, a TGI [11] of 76.9 µM and a TGI [12] of over 100 µM. It also gave a TGI [13] of over 100 µM, a TGI [14] of over 100 µM and a TGI [15] of 34.7 µM. The TGI [16] was over 100 µM and the TGI [18] was over 100 µM.

Work on `CCN(CC)CC1CCCCN1CC(=O)N1c2cc(Cl)ccc2NC(=O)CC1C` (stereo unspecified) yielded a TGI [1] of over 100 µM, a TGI [2] of over 100 µM and a TGI [3] of over 100 µM. For the same compound, the TGI [4] was over 100 µM, the TGI [5] was over 100 µM and the TGI [6] was over 100 µM. For the same compound, the TGI [7] was over 100 µM, the TGI [8] was over 100 µM and the TGI [9] was over 100 µM. For the same compound, the TGI [10] was over 100 µM, the TGI [11] was over 100 µM and the TGI [12] was over 100 µM. For the same compound, the TGI [13] was over 100 µM, the TGI [14] was over 100 µM and the TGI [15] was over 100 µM. For the same compound, the TGI [16] was over 100 µM and the TGI [18] was over 100 µM.

Work on `COC1(OC)CC2C(=O)N(Cc3ccccc3)C1C(S(=O)(=O)c1ccccc1)C2C(C)S(=O)(=O)c1ccccc1` (stereo unspecified) yielded a TGI [1] of over 100 µM, a TGI [2] of over 100 µM and a TGI [3] of over 100 µM. For the same compound, the TGI [4] was over 100 µM, the TGI [5] was over 100 µM and the TGI [6] was over 100 µM. For the same compound, the TGI [7] was over 100 µM, the TGI [8] was over 100 µM and the TGI [9] was over 100 µM. It also gave a TGI [10] of over 100 µM, a TGI [11] of over 100 µM and a TGI [12] of over 100 µM. The TGI [13] was over 100 µM, the TGI [14] was over 100 µM and the TGI [15] was over 100 µM. It also gave a TGI [16] of over 100 µM, a TGI [17] of over 100 µM and a TGI [18] of over 100 µM.

For `C[N+]1=C(c2cccnc2/C=N/O)OCC1(C)C`, the TGI [1] was over 100 µM, the TGI [2] was over 100 µM and the TGI [3] was over 100 µM. The TGI [4] was over 100 µM, the TGI [5] was over 100 µM and the TGI [6] was over 100 µM. For the same compound, the TGI [7] was over 100 µM, the TGI [8] was over 100 µM and the TGI [9] was over 100 µM. For the same compound, the TGI [10] was over 100 µM, the TGI [11] was over 100 µM and the TGI [12] was over 100 µM. It also gave a TGI [13] of over 100 µM, a TGI [14] of over 100 µM and a TGI [15] of over 100 µM. For the same compound, the TGI [16] was over 100 µM, the TGI [17] was over 100 µM and the TGI [18] was over 100 µM.

`Oc1ccc(-c2c3ccccc3c(-c3ccc(O)cc3)c3ccccc23)cc1` gave a TGI [1] of over 100 µM, a TGI [2] of over 100 µM and a TGI [3] of over 100 µM. The TGI [4] was over 100 µM, the TGI [5] was over 100 µM and the TGI [6] was over 100 µM. The TGI [7] was over 100 µM, the TGI [8] was over 100 µM and the TGI [9] was over 100 µM. The TGI [10] was over 100 µM, the TGI [11] was over 100 µM and the TGI [12] was over 100 µM. For the same compound, the TGI [13] was over 100 µM, the TGI [14] was over 100 µM and the TGI [15] was over 100 µM. It also gave a TGI [16] of over 100 µM, a TGI [17] of over 100 µM and a TGI [18] of over 100 µM.

With `Cc1ccc2nc(N)[nH]c(=O)c2c1Sc1ccncc1` the TGI [1] was over 100 µM, the TGI [2] was over 100 µM and the TGI [3] was over 100 µM. It also gave a TGI [4] of over 100 µM, a TGI [5] of over 100 µM and a TGI [6] of over 100 µM. The TGI [7] was over 100 µM, the TGI [8] was over 100 µM and the TGI [9] was over 100 µM. For the same compound, the TGI [10] was over 100 µM, the TGI [11] was over 100 µM and the TGI [12] was over 100 µM. The TGI [13] was over 100 µM, the TGI [14] was over 100 µM and the TGI [15] was over 100 µM. The TGI [16] was over 100 µM, the TGI [17] was over 100 µM and the TGI [18] was over 100 µM.
